Assay results reported in patent publication US4629786A, “C-20- and C-23 modified macrolide derivatives” (Eli Lilly and Company, priority 1984, dated 1986).
Values after ≈ are worked out from the molar mass of the structure shown. Like-named read-outs stand apart in the source and are kept apart here.

Assays:
[1] = tested on: Staphylococcus aureus X1.1; assay: MIC, standard agar-dilution assay, Staphylococcus aureus X1.1; type: cell-based
Method: (§1) Certain of the derivatives are active against some gram-negative bacteria, such as Pasteurella species. The MIC's in Table II were determined by standard agar-dilution assays.

[2] = tested on: Staphylococcus aureus V41; assay: MIC, standard agar-dilution assay, Staphylococcus aureus V41; type: cell-based
Method: as §1

[3] = tested on: Staphylococcus aureus X400; assay: MIC, standard agar-dilution assay, Staphylococcus aureus X400; type: cell-based
Method: as §1

[4] = tested on: Staphylococcus aureus S13E; assay: MIC, standard agar-dilution assay, Staphylococcus aureus S13E; type: cell-based
Method: as §1

[5] = tested on: Staphylococcus epidermidis EPI1; assay: MIC, standard agar-dilution assay, Staphylococcus epidermidis EPI1; type: cell-based
Method: as §1

[6] = tested on: Staphylococcus epidermidis EPI2; assay: MIC, standard agar-dilution assay, Staphylococcus epidermidis EPI2; type: cell-based
Method: as §1

[7] = tested on: Streptococcus pyogenes C203; assay: MIC, standard agar-dilution assay, Streptococcus pyogenes C203; type: cell-based
Method: as §1

[8] = tested on: Streptococcus pneumoniae Park I; assay: MIC, standard agar-dilution assay, Streptococcus pneumoniae Park I; type: cell-based
Method: as §1

[9] = tested on: Streptococcus pneumoniae Group D X66; assay: MIC, standard agar-dilution assay, Streptococcus pneumoniae Group D X66; type: cell-based
Method: as §1

[10] = tested on: Streptococcus pneumoniae Group D X9960; assay: MIC, standard agar-dilution assay, Streptococcus pneumoniae Group D X9960; type: cell-based
Method: as §1

[11] = tested on: Haemophilus influenzae C.L.; assay: MIC, standard agar-dilution assay, Haemophilus influenzae C.L.; type: cell-based
Method: as §1

[12] = tested on: Haemophilus influenzae 76; assay: MIC, standard agar-dilution assay, Haemophilus influenzae 76; type: cell-based
Method: as §1

Escherichia coli EC14 = assay: MIC, standard agar-dilution assay, Escherichia coli EC14; type: cell-based
Method: as §1

Escherichia coli TEM = assay: MIC, standard agar-dilution assay, Escherichia coli TEM; type: cell-based
Method: as §1

[13] = tested on: Klebsiella pneumoniae X26; assay: MIC, standard agar-dilution assay, Klebsiella pneumoniae X26; type: cell-based
Method: as §1

[14] = tested on: Klebsiella pneumoniae KAE; assay: MIC, standard agar-dilution assay, Klebsiella pneumoniae KAE; type: cell-based
Method: as §1

[15] = tested on: Streptococcus pyogenes C203; assay: protection of mice experimentally infected with S. pyogenes C203; type: in vivo; conditions: mg/kg × 2, doses given 1 and 4 hours postinfection
Method: Some of the derivatives of this invention have shown in vivo antimicrobial activity against experimentally-induced infections in laboratory animals. When two doses of test compound were administered to mice experimentally infected with S. pyogenes C203, the activity observed was measured as an ED50 value [effective dose in mg/kg to protect 50% of the test animals: see Warren Wick, et al., J. Bacteriol. 81, 233-235 (1961)].
^a mg/kg × 2; doses given 1 and 4 hours postinfection

[16] = Streptococcus pneumoniae Park I, read-out: MIC
[17] = Streptococcus pneumoniae Group D X9960, read-out: MIC
[18] = Haemophilus influenzae C.L., Ampicillin-sensitive strain, read-out: MIC
[19] = Haemophilus influenzae 76, Ampicillin-resistant strain, read-out: MIC
[20] = Escherichia coli TEM, read-out: MIC
[21] = Klebsiella pneumoniae KAE, read-out: MIC
[22] = Staphylococcus aureus V41, Penicillin-resistant strain, read-out: MIC
[23] = Staphylococcus aureus X400, Methicillin-resistant strain, read-out: MIC

Compound	MIC ([1]; read-out: MIC)	MIC ([2]; Staphylococcus aureus, V41)	MIC [4]	MIC ([5]; read-out: MIC)	MIC [6]	MIC ([7]; read-out: MIC)	MIC [8, 16]	MIC ([9]; Streptococcus pneumoniae)	MIC [10, 17]	MIC [11, 18]	MIC [12, 19]	MIC (Escherichia coli EC14; read-out: MIC)	MIC ([13]; read-out: MIC)	MIC [14, 21]	ED50 ([15]; C203, Oral)	ED50 ([15]; C203, sc, Subcutaneous)	MIC [3, 23]	MIC [7]	MIC (Escherichia coli EC14)	MIC (Escherichia coli TEM; Escherichia coli)	also measured
CCC1OC(=O)CC(O)C(C)C(OC2OC(C)C(O)C(N(C)C)C2O)C(CCN2CCCCCCC2)CC(C)C(=O)C=CC(C)=CC1CN1CCCCCCC1 (stereo not shown) [Compound 15, 20-DH-DO-23-Deoxy-20,23-di(octahydroazocin-1-yl)-OMT]	0.5 µg/mL (≈ 0.633 µM)	0.5 µg/mL (≈ 0.633 µM)	0.5 µg/mL (≈ 0.633 µM)	0.5 µg/mL (≈ 0.633 µM)	0.25 µg/mL (≈ 0.316 µM)	0.125 µg/mL (≈ 0.158 µM)	0.125 µg/mL (≈ 0.158 µM)	0.5 µg/mL (≈ 0.633 µM)	1 µg/mL (≈ 1.27 µM)	0.5 µg/mL (≈ 0.633 µM)	1 µg/mL (≈ 1.27 µM)	4 µg/mL (≈ 5.06 µM)	2 µg/mL (≈ 2.53 µM)	8 µg/mL (≈ 10.1 µM)	> 50 mg/kg	> 10 mg/kg					MIC ([3]; Staphylococcus aureus, X400): 0.5 µg/mL (≈ 0.633 µM); MIC (Escherichia coli TEM; [20]): 2 µg/mL (≈ 2.53 µM); pKa (Titration pKa; Titration pKa value (first)): 6.9; pKa (Titration pKa; Titration pKa value (second)): 8.05; pKa (Titration pKa; Titration pKa value (third), third printed value): 8.9
CCC1OC(=O)CC(O)C(C)C(OC2OC(C)C(O)C(N(C)C)C2O)C(CCN2CCCCCC2)CC(C)C(=O)C=CC(C)=CC1C (stereo not shown) [Compound 23]	4 µg/mL (≈ 6.02 µM)		4 µg/mL (≈ 6.02 µM)	2 µg/mL (≈ 3.01 µM)	1 µg/mL (≈ 1.5 µM)				16 µg/mL (≈ 24.1 µM)	16 µg/mL (≈ 24.1 µM)	16 µg/mL (≈ 24.1 µM)		2 µg/mL (≈ 3.01 µM)	128 µg/mL (≈ 193 µM)	> 100 mg/kg	> 10 mg/kg	8 µg/mL (≈ 12 µM)	0.5 µg/mL (≈ 0.752 µM)	128 µg/mL (≈ 193 µM)	8 µg/mL (≈ 12 µM)	MIC [2, 22]: 4 µg/mL (≈ 6.02 µM); MIC ([9]; Streptococcus pneumoniae Group D X66, read-out: MIC): 8 µg/mL (≈ 12 µM)
CCC1OC(=O)CC(O)C(C)C(OC2OC(C)C(O)C(N(C)C)C2O)C(CCN2CC3CCC(CC3)C2)CC(C)C(=O)C=CC(C)=CC1CO (stereo not shown) [Compound 13, 20-DH-DO-20-[3-Azabicyclo(3.2.2)-nonan-3-yl]-OMT]		1 µg/mL (≈ 1.41 µM)	1 µg/mL (≈ 1.41 µM)		0.25 µg/mL (≈ 0.354 µM)	2 µg/mL (≈ 2.83 µM)		4 µg/mL (≈ 5.66 µM)	8 µg/mL (≈ 11.3 µM)	4 µg/mL (≈ 5.66 µM)	2 µg/mL (≈ 2.83 µM)	32 µg/mL (≈ 45.3 µM)	2 µg/mL (≈ 2.83 µM)		87 mg/kg	5.9 mg/kg	1 µg/mL (≈ 1.41 µM)				MIC [1]: 1 µg/mL (≈ 1.41 µM); MIC [5]: 1 µg/mL (≈ 1.41 µM); MIC ([8]; Streptococcus pneumoniae): 0.25 µg/mL (≈ 0.354 µM); MIC (Escherichia coli TEM; [20]): 8 µg/mL (≈ 11.3 µM); MIC ([14]; Klebsiella pneumoniae): 64 µg/mL (≈ 90.5 µM); pKa (physchem; Titration pKa value (first)): 7.7; pKa (physchem; Titration pKa value (second)): 9.3
CCC1OC(=O)CC(O)C(C)C(OC2OC(C)C(O)C(N(C)C)C2O)C(CCN2CCCCCC2)CC(C)C(=O)C=CC(C)=CC1CO (stereo not shown) [Compound 5]		4 µg/mL (≈ 5.87 µM)	4 µg/mL (≈ 5.87 µM)	2 µg/mL (≈ 2.94 µM)	2 µg/mL (≈ 2.94 µM)			16 µg/mL (≈ 23.5 µM)					4 µg/mL (≈ 5.87 µM)	128 µg/mL (≈ 188 µM)	> 100 mg/kg	7.8 mg/kg	8 µg/mL (≈ 11.7 µM)	0.5 µg/mL (≈ 0.734 µM)	128 µg/mL (≈ 188 µM)	16 µg/mL (≈ 23.5 µM)	MIC [1]: 4 µg/mL (≈ 5.87 µM); MIC ([10]; Streptococcus pneumoniae): 16 µg/mL (≈ 23.5 µM); MIC ([11]; Haemophilus influenzae): 16 µg/mL (≈ 23.5 µM); MIC ([12]; Haemophilus influenzae, 76): 16 µg/mL (≈ 23.5 µM)
CCC1OC(=O)CC(O)C(C)C(OC2OC(C)C(O)C(N(C)C)C2O)C(CCN2CCOCC2)CC(C)C(=O)C=CC(C)=CC1CO (stereo not shown) [Compound 14, 20-DH-DO-20-Morpholino-OMT]	4 µg/mL (≈ 5.98 µM)		4 µg/mL (≈ 5.98 µM)	2 µg/mL (≈ 2.99 µM)	1 µg/mL (≈ 1.5 µM)	1 µg/mL (≈ 1.5 µM)	0.5 µg/mL (≈ 0.748 µM)		4 µg/mL (≈ 5.98 µM)	16 µg/mL (≈ 23.9 µM)	4 µg/mL (≈ 5.98 µM)				> 100 mg/kg	> 10 mg/kg	8 µg/mL (≈ 12 µM)		128 µg/mL (≈ 191 µM)	64 µg/mL (≈ 95.7 µM)	MIC [2, 22]: 4 µg/mL (≈ 5.98 µM); MIC [13]: 4 µg/mL (≈ 5.98 µM); MIC ([14]; Klebsiella pneumoniae KAE, symbol for not active at 128 mcg/ml, read-out: MIC): > 128 µg/mL; pKa (Titration pKa; Titration pKa value (first)): 6.5; pKa (Titration pKa; Titration pKa value (second)): 8.4
CCC1OC(=O)CC(O)C(C)C(OC2OC(C)C(O)C(N(C)C)C2O)C(CCN2CCC(c3ccccc3)CC2)CC(C)C(=O)C=CC(C)=CC1CO (stereo not shown) [Compound 4, 20-DH-DO-20-(4-Phenylpiperidin-1-yl)-OMT]		2 µg/mL (≈ 2.69 µM)	2 µg/mL (≈ 2.69 µM)	1 µg/mL (≈ 1.35 µM)	0.5 µg/mL (≈ 0.673 µM)		0.25 µg/mL (≈ 0.336 µM)	2 µg/mL (≈ 2.69 µM)	4 µg/mL (≈ 5.38 µM)			32 µg/mL (≈ 43.1 µM)			> 100 mg/kg	> 10 mg/kg		2 µg/mL (≈ 2.69 µM)		8 µg/mL (≈ 10.8 µM)	MIC [1]: 2 µg/mL (≈ 2.69 µM); MIC ([3]; Staphylococcus aureus, X400): 2 µg/mL (≈ 2.69 µM); MIC ([11]; Haemophilus influenzae): 8 µg/mL (≈ 10.8 µM); MIC ([12]; Haemophilus influenzae, 76): 8 µg/mL (≈ 10.8 µM); MIC [13]: 2 µg/mL (≈ 2.69 µM); MIC ([14]; Klebsiella pneumoniae): 64 µg/mL (≈ 86.1 µM)
